The experiment concerns SARS-CoV-2 (USA-WA1/2020) in Calu-3 cells. In kind it is cell-based. Conditions: Calu-3, 48 h; for dsRNA signal, AU High: high dose (10 µM); for dsRNA signal, AU Low: low dose (100 nM).

Take `CN(C)C/C=C/C(=O)Nc1cc2c(Nc3ccc(F)c(Cl)c3)ncnc2cc1O[C@H]1CCOC1` [Afatinib dimaleate]: the “dsRNA signal, AU High” value was 15371.8 AU and the “dsRNA signal, AU Low” value is listed as 40279.2 AU.
As for `O=C(Nc1cc(Oc2cc(F)c(NC(=O)C3(C(=O)Nc4ccc(F)cc4)CC3)cc2F)ccn1)C1CC1` [Altiratinib], the “dsRNA signal, AU High” value is 7645.1 AU and the “dsRNA signal, AU Low” value is listed as 34585.3 AU.
In the same order, the values of `CC(C)c1ccc2oc3nc(N)c(C(=O)O)cc3c(=O)c2c1` [Amlexanox] are 17956.6 AU and 28672.3 AU.
Turning to `S=C(NCc1ccc2c(c1)OCO2)N1CCN(c2ncnc3c2oc2ccccc23)CC1` [Amuvatinib (MP-470, HPK 56)], the “dsRNA signal, AU High” value is on record as 6649.7 AU and the “dsRNA signal, AU Low” value was 32179.3 AU.
In the case of `COc1ccc(C[C@H]2NC[C@H](O)[C@H]2OC(C)=O)cc1` [Anisomycin], the “dsRNA signal, AU High” value was 20082.7 AU and the “dsRNA signal, AU Low” value worked out at 2629.3 AU.
With `N#CC1(c2ccc(NC(=O)c3cccnc3NCc3ccncc3)cc2)CCCC1` [Apatinib], the “dsRNA signal, AU High” value was found to be 181.1 AU and the “dsRNA signal, AU Low” value turned out to be 36614.7 AU.
As for `O=c1cc(-c2ccc(O)cc2)oc2cc(O)cc(O)c12` [Apigenin], the “dsRNA signal, AU High” value is recorded as 1738.8 AU and the “dsRNA signal, AU Low” value was determined as 15810.5 AU.
Regarding `C[C@@H]1CC[C@H]2[C@@H](C)C(=O)O[C@@H]3O[C@@]4(C)CC[C@@H]1[C@]32OO4` [Artemisinine], the “dsRNA signal, AU High” value is listed as 2826.9 AU and the “dsRNA signal, AU Low” value came out at 35035.3 AU.
Take `O=C(Nc1cccc(Nc2nccc(Nc3cccc(C(F)(F)F)c3)n2)c1)C1CC1` [Aurora Kinase Inhibitor III]: the “dsRNA signal, AU High” value came to 2378.0 AU and the “dsRNA signal, AU Low” value worked out at 11511.4 AU.
Consider `CNC(=O)c1ccccc1Sc1ccc2c(/C=C/c3ccccn3)n[nH]c2c1` [Axitinib (AG 013736)], for which the “dsRNA signal, AU High” value worked out at 42600.6 AU and the “dsRNA signal, AU Low” value came out at 65444.2 AU.
With `CCN1CCN(c2ccc(Nc3cc(N(C)C(=O)Nc4c(Cl)c(OC)cc(OC)c4Cl)ncn3)cc2)CC1` [BGJ398], the “dsRNA signal, AU High” value stood at 24356.1 AU and the “dsRNA signal, AU Low” value is listed as 22673.4 AU.
On to `CC[C@@H]1C(=O)N(C)c2cnc(Nc3ccc(C(=O)NC4CCN(C)CC4)cc3OC)nc2N1C1CCCC1` [BI 2536], for which the “dsRNA signal, AU High” value is given as 34739.4 AU and the “dsRNA signal, AU Low” value was determined as 58236.8 AU.
`Cc1ccc(-n2nc(C(C)(C)C)cc2NC(=O)Nc2ccc(OCCN3CCOCC3)c3ccccc23)cc1` [BIRB 796 (Doramapimod)]: the “dsRNA signal, AU High” value stood at 8315.3 AU and the “dsRNA signal, AU Low” value is 13140.6 AU.
Regarding `CN(C)Cc1cccc(N/C(=C2\C(=O)Nc3cc(C(N)=O)ccc32)c2ccccc2)c1` [BIX 02188], the “dsRNA signal, AU High” value was determined as 40230.6 AU and the “dsRNA signal, AU Low” value came to 23376.7 AU.
In the case of `NC(=O)c1ccc2nc(-c3ccc(Oc4ccc(Cl)cc4)cc3)[nH]c2c1` [BML-277], the “dsRNA signal, AU High” value was 33021.5 AU and the “dsRNA signal, AU Low” value is 13488.9 AU.
Consider `Cc1ccc2nc(NCCN)c3ncc(C)n3c2c1.Cl` [BMS345541 hydrochloride], for which the “dsRNA signal, AU High” value is given as 0.0 AU and the “dsRNA signal, AU Low” value stood at 5872.9 AU.
On to `CCCNC(=O)c1cn2ncnc(Nc3cc(C(=O)NC4CC4)ccc3C)c2c1C.Cl` [BMS-582949 hydrochloride], for which the “dsRNA signal, AU High” value came out at 7441.1 AU and the “dsRNA signal, AU Low” value is on record as 64364.9 AU.
In the same order, the values of `CCOc1ccn(-c2ccc(F)cc2)c(=O)c1C(=O)Nc1ccc(Oc2ccnc(N)c2Cl)c(F)c1` [BMS-777607] are 39539.6 AU and 18689.6 AU.
`CCn1c(C(=O)N(C2CC2)C2CC2)cc2c3c(ncn3C)c(Nc3cc(C)n(C)n3)nc21` [BMS-911543]: the “dsRNA signal, AU High” value stood at 18362.9 AU and the “dsRNA signal, AU Low” value worked out at 16684.7 AU.
As to `C=CC(=O)Nc1cc(-n2c(=O)ccc3cnc4ccc(-c5ccc(NS(C)(=O)=O)cc5)cc4c32)ccc1C` [BMX-IN-1], the “dsRNA signal, AU High” value is 37737.5 AU and the “dsRNA signal, AU Low” value came out at 26747.2 AU.
In the case of `Cc1ccc(NC(=O)c2ccc(CN3CC[C@H](N(C)C)C3)c(C(F)(F)F)c2)cc1Nc1nccc(-c2cncnc2)n1` [Bafetinib (INNO-406)], the “dsRNA signal, AU High” value is 1113.6 AU and the “dsRNA signal, AU Low” value amounted to 32473.2 AU.
As to `CCN(CCO)CCCOc1ccc2c(Nc3cc(CC(=O)Nc4cccc(F)c4)[nH]n3)ncnc2c1` [Barasertib (AZD1152-HQPA)], the “dsRNA signal, AU High” value was found to be 48647.4 AU and the “dsRNA signal, AU Low” value is recorded as 41038.0 AU.
`CCS(=O)(=O)N1CC(CC#N)(n2cc(-c3ncnc4[nH]ccc34)cn2)C1` [Baricitinib (LY3009104, INCB028050)]: the “dsRNA signal, AU High” value amounted to 27614.1 AU and the “dsRNA signal, AU Low” value was found to be 24279.2 AU.
For the molecule `CCS(=O)(=O)N1CC(CC#N)(n2cc(-c3ncnc4[nH]ccc34)cn2)C1` [Baricitinib phosphate], the “dsRNA signal, AU High” value stood at 2518.9 AU and the “dsRNA signal, AU Low” value is recorded as 32442.1 AU.
For the molecule `CC(C)(C)c1ccc(S(=O)(=O)/C=C/C#N)cc1` [Bay 11-7085], the “dsRNA signal, AU High” value turned out to be 63723.6 AU and the “dsRNA signal, AU Low” value was found to be 21705.2 AU.
For the molecule `O=C(O)CCC(=O)Nc1ccc(Br)cn1` [Bikinin], the “dsRNA signal, AU High” value stood at 39833.6 AU and the “dsRNA signal, AU Low” value turned out to be 44813.6 AU.
In the same order, the values of `COc1ccc(-c2coc3cc(O)cc(O)c3c2=O)cc1` [Biochanin A] are 14982.3 AU and 21751.5 AU.
On to `COc1cc(Nc2c(C#N)cnc3cc(OCCCN4CCN(C)CC4)c(OC)cc23)c(Cl)cc1Cl` [Bosutinib (SKI-606)], for which the “dsRNA signal, AU High” value was found to be 38090.7 AU and the “dsRNA signal, AU Low” value worked out at 42027.4 AU.
For `CCOc1ccc(Nc2ccc(/C(=C3C=C/C(=[N+](/CC)Cc4cccc(S(=O)(=O)[O-])c4)C=C/3C)c3ccc(N(CC)Cc4cccc(S(=O)(=O)O)c4)cc3C)cc2)cc1` [Brilliant Blue G], the “dsRNA signal, AU High” value is reported as 11949.6 AU and the “dsRNA signal, AU Low” value was determined as 31753.4 AU.
`Cc1cc2c(F)c(Oc3ncnn4cc(OC[C@@H](C)O)c(C)c34)ccc2[nH]1` [Brivanib (BMS-540215)]: the “dsRNA signal, AU High” value came out at 51042.4 AU and the “dsRNA signal, AU Low” value came to 684.7 AU.
As to `O=C(/C=C/c1ccc(O)c(O)c1)c1ccc(O)cc1O` [Butein], the “dsRNA signal, AU High” value turned out to be 38311.3 AU and the “dsRNA signal, AU Low” value is recorded as 14009.4 AU.
As to `CCN1C(=O)CNc2ncc(-c3ccc(-c4nc[nH]n4)nc3C)nc21` [CC-115], the “dsRNA signal, AU High” value is on record as 5666.1 AU and the “dsRNA signal, AU Low” value amounted to 44138.8 AU.
`CO[C@H]1CC[C@H](N2C(=O)CNc3ncc(-c4ccc(C(C)(C)O)nc4)nc32)CC1` [CC-223]: the “dsRNA signal, AU High” value was 6587.4 AU and the “dsRNA signal, AU Low” value is given as 41988.9 AU.
Take `NC1(Cc2ccc(Cl)cc2)CCN(c2ncnc3[nH]ccc23)CC1` [CCT128930]: the “dsRNA signal, AU High” value is 1507.6 AU and the “dsRNA signal, AU Low” value stood at 9152.4 AU.
For `Cc1cc(CN2CCN(c3c(Br)cnc4nc(-c5ccc(N6CCN(C)CC6)cc5)[nH]c34)CC2)no1` [CCT137690] the same measures were 0.0 AU and 46657.6 AU.
On to `CN1CCN(c2cccc(Nc3nc4c(-c5ccc(S(C)(=O)=O)cc5)cccn4n3)c2)CC1` [CEP-33779], for which the “dsRNA signal, AU High” value was determined as 12244.2 AU and the “dsRNA signal, AU Low” value is listed as 3458.4 AU.
Take `Cc1c(NC(=O)c2ccc(C(C)(C)C)cc2)cccc1-c1cn(C)c(=O)c(Nc2ccc(C(=O)N3CCOCC3)cc2)n1` [CGI-1746]: the “dsRNA signal, AU High” value came to 34116.6 AU and the “dsRNA signal, AU Low” value was 18368.1 AU.
In the same order, the values of `Nc1ncnc2n[nH]c(Nc3ccc(F)cc3)c12` [CGP 57380] are 1947.6 AU and 33084.2 AU.
Regarding `O=c1[nH]c2ccc(Cl)cc2c(N[C@@H]2CN3CCC2CC3)c1-c1nc2ccccc2[nH]1` [CHIR-124], the “dsRNA signal, AU High” value amounted to 9794.1 AU and the “dsRNA signal, AU Low” value turned out to be 2244.6 AU.
For `Cc1cnc(-c2cnc(NCCNc3ccc(C#N)cn3)nc2-c2ccc(Cl)cc2Cl)[nH]1` [CHIR-99021 (CT99021)], the “dsRNA signal, AU High” value was 62333.9 AU and the “dsRNA signal, AU Low” value came to 10204.7 AU.
Take `O=C1NCCCc2c1oc1ccc(O)cc21` [CID 755673]: the “dsRNA signal, AU High” value is 9033.3 AU and the “dsRNA signal, AU Low” value came out at 7582.1 AU.
As to `O=C(Nc1ccc(CN2CCOCC2)cc1)c1ccc(-c2cccc(Cl)c2)o1` [CID 2011756], the “dsRNA signal, AU High” value amounted to 3490.5 AU and the “dsRNA signal, AU Low” value was 12424.4 AU.
In the same order, the values of `C=CC(=O)Nc1cccc(Nc2nc(Nc3ccc(N4CCN(C(C)=O)CC4)cc3OC)ncc2C(F)(F)F)c1` [CO-1686 (AVL-301)] are 16434.5 AU and 26200.1 AU.
For `Cn1cc(C2=C(c3cccc(N)c3)C(=O)NC2=O)c2ccccc21` [CP21R7] the same measures were 5189.9 AU and 2975.5 AU.
Take `COc1cc2ncnc(-n3nc(-c4ccccn4)nc3N)c2cc1OC` [CP-466722]: the “dsRNA signal, AU High” value is reported as 23326.1 AU and the “dsRNA signal, AU Low” value was 24439.1 AU.
For `COCCOc1ccc2c(c1)ncn2-c1ccc2cccc(N3CCC(N)CC3)c2n1` [CP-673451], the “dsRNA signal, AU High” value is listed as 14720.6 AU and the “dsRNA signal, AU Low” value is recorded as 4566.7 AU.
With `COCC(=O)NC/C=C/c1ccc2ncnc(Nc3ccc(Oc4ccc(C)nc4)c(C)c3)c2c1` [CP-724714], the “dsRNA signal, AU High” value is reported as 1118.3 AU and the “dsRNA signal, AU Low” value turned out to be 29983.8 AU.
For `O=C(O)CCCCC(CCSCc1ccccc1)SCc1ccccc1` (centres unmarked) [CPI-613], the “dsRNA signal, AU High” value came out at 36.8 AU and the “dsRNA signal, AU Low” value amounted to 25399.4 AU.
Regarding `CC[C@@H](N)CNc1ccnc(-c2cc(-c3cnn(C)c3)ccc2O)n1.Cl.Cl` [CRT 0066101], the “dsRNA signal, AU High” value was 0.0 AU and the “dsRNA signal, AU Low” value is 45629.7 AU.

The record behind these values is PMC12142043, “Cell-based high-content approach for SARS-CoV-2 neutralization identifies unique monoclonal antibodies and PI3K pathway inhibitors” (Frontiers in Cell and Developmental Biology, 2025).
